Laboratory results from patent US20240342111A1, “ISOMER-SPECIFIC NEUROPROTECTIVE EFFECT OF NATURAL RESERVATROL” (priority 2021, published 2024).

Tests used:
[1] = test system: rat primary cortical neuron cultures; test: NMDA excitotoxicity, viability by MTT assay; assay type: cell-based; conditions: then NMDA 500 μM for 5 minutes
Procedure: Cells were then exposed to excitotoxic NMDA (500 μM for 5 minutes) and viability was assessed using MTT assay after 24 hours. […] Rat cortical neurons (DIV 9) were treated with NMDA (50 μM for 5 minutes) and then with cis-RSV for 24 hours. Cells were then exposed to excitotoxic NMDA (500 μM for 5 minutes) and viability was assessed using MTT assay after 24 hours. […] Cell viability was assessed after 48 hours. […] Representative images (scale bar, 20 μm) for cortical neurons following neurite degeneration (MAP2—neurite marker, magenta and DAPI—nuclear marker, blue). […] Neurons were immunoassayed with anti-MAP2 antibody and quantified for neurite degeneration. The data represents mean±SEM for n=3 experiments with significance measured using Student's paired t-test.
Primary cortical neuron cultures were obtained from E18 Sprague Dawley rats' cortices, which were dissected in Hibernate E (BrainBits) and dissociated using the Neural Tissue Dissociation kit (Miltenyi Biotec). For this, minced cortices were incubated in a pre-warmed enzyme mix at 37° C. for 15 min; tissues were then triturated and strained using a 40 μm cell strainer. After washing and centrifugation, neurons were seeded in 50 μg/ml poly-D-Lysine (Sigma Aldrich) coated tissue culture plates. NBActive-1 medium (BrainBits) supplemented with 100 U/ml of Penicillin-Streptomycin (Life Technologies), 2 mM L-Glutamine (Life Technologies), and 1 X N21 supplement (R&D Systems) was used as culture medium. Control (AM4635), TyrRS (s443), PARP1 (s130207) siRNA for transfection were obtained from Invitrogen. […]
Rat cortical neurons (DIV 10-11) were exposed to different treatments after seeding 20,000 cells/well in 96-well plates. Cell viability was then assessed at 48 hours after the initial exposure to NMDA. […] The percentage of MTT reduced as measured by the difference between the absorbances at 570 nm read in a spectrophotometer (Spectramax 190R Molecular Devices, UK). The percentage of reduction of MTT was calculated comparing the difference of the absorbance at 570 of each sample. […]

8-oxo-2′-dG = test: Quantification of 8-oxo-2′-dG (oxidation level of neuronal DNA); assay type: cell-based, rat; conditions: 50 μM, 16 hours
Text: Although Aβ exacerbates neuronal DNA damage through an unknown mechanism, see Suberbielle, E. et al. Physiologic brain activity causes DNA double-strand breaks in neurons, with exacerbation by amyloid-beta. […] Elife 7, doi:ARTN e34334 10.7554/eLife.34334 (2018), and (see FIG. 7 at (b)). […] Mol Cell 65, 932-940 e936, doi:10.1016/j.molcel.2017.01.003 (2017), in a time-dependent manner (see FIG. 7 at (c)). […] Representative immunoblots and quantification for the auto-PARylation level of PARP1 after the siRNA knockdown of TyrRS.

Ligase IV = test: Immunoblot for DNA repair protein Ligase IV; assay type: cell-based, rat; conditions: 5-50 μM, 4 hours
Text: (§1) Ac-K56-H3 is a marker of genomic stability, see Driscoll, R., Hudson, A. & Jackson, S. P. Yeast Rtt109 promotes genome stability by acetylating histone H3 on lysine 56. Science 315, 649-652, doi:10.1126/science.1135862 (2007), and DNA damage, see Tjeertes, J. V., Miller, K. M. & Jackson, S. P. Screen for DNA-damage-responsive histone modifications identifies H3K9Ac and H3K56Ac in human cells. EMBO J 28, 1878-1889, doi:10.1038/emboj.2009.119 (2009), and inhibition of PARP1 causes the downregulation of RAD51, see Hegan, D. C. et al. Inhibition of poly(ADP-ribose) polymerase down-regulates BRCA1 and RAD51 in a pathway mediated by E2F4 and p130. […] The western blot images of the protein levels of HPF1 was quantified using ImageJ.
Cultured neurons (DIV 9-10) were washed once with cold 1×PBS and lysed in cell lysis buffer (20 mM Tris-HCl (pH 7.5), 150 mM NaCl, 1 mM Na2EDTA, 1 mM EGTA, 1% Triton, 2.5 mM sodium pyrophosphate, 1 mM beta-glycerophosphate, 1 mM Na3VO4, 1 μg/ml leupeptin supplemented with protease inhibitor). […] Lysates were quantified using Bio-Rad Protein Assay, and an equal amount of protein was loaded onto a 4 to 12% gradient gel (NuPAGE-Invitrogen). […] Quantification for the western blots was done using ImageJ (Version 1.53c).

pSer10-H3 = test: Immunostaining of pSer10-H3 (ADP-ribosylation dependent DNA repair marker); assay type: cell-based, rat; conditions: pre-treated 50 μM 16 hours, then Aβ 50 nM 24 hours
Text: as §1, with “p130. Proc Natl Acad Sci U S A 107, 2201-2206, doi:10.1073/pnas.0904783107 (2010), and induces neurotoxicity, see Diaz-Hernandez, J. I., Moncada, S., Bolanos, J. P. & Almeida, A. Poly(ADP-ribose) polymerase-1 protects neurons against apoptosis induced by oxidative stress. Cell Death Differ 14, 1211-1221, doi:10.1038/sj.cdd.4402117 (2007) and Midorikawa, R., Takei, Y. & Hirokawa, N. KIF4 motor regulates activity-dependent neuronal survival by suppressing PARP-1 enzymatic activity. Cell 125, 371-383, doi:10.1016/j.cell.2006.02.039 (2006).” for “p130.”
Coverslips were then mounted using DAPI (4′,6-diamidino-2-phenylindole)-supplemented mounting medium, Prolong Gold Antifade (Invitrogen) imaged with Leica DMI6000 epifluorescent microscope at 63×magnification.

## Oc1ccc(/C=C\c2cc(O)cc(O)c2)cc1 [cis-RSV, cis-resveratrol]
[1]; cis-RSV for 24 hours
  neuronal survival under NMDA excitotoxicity: protected against excitotoxicity in a dose-dependent manner
8-oxo-2′-dG
  levels of 8-oxo-dG: downregulated both the protein levels of OGG1 and the levels of 8-oxo-dG
Ligase IV
  ligase IV protein levels: upregulated them
pSer10-H3
  pSer10-H3 levels: reduced pSer10-H3 levels

## Oc1ccc(/C=C/c2cc(O)cc(O)c2)cc1 [trans-RSV, trans-resveratrol]
[1]; higher dose (≥25 μM), 24 hours
  neuronal survival under NMDA excitotoxicity: exacerbated the N-Methyl-D-aspartate (NMDA)-mediated excitotoxicity
[1]; low dose (≤10 μM), 24 hours
  neuronal survival under NMDA excitotoxicity: evoked neuroprotective effects
8-oxo-2′-dG
  levels of 8-oxo-dG: upregulated the levels of 8-oxo-2′-deoxyguanosine (8-oxo-dG)
Ligase IV
  ligase IV protein levels: downregulated the protein levels
pSer10-H3
  pSer10-H3 levels: upregulation
